In patent US8697747B2, “Enhancing coagulation or reducing fibrinolysis” (THe UAB Research Foundation, priority 2009, dated 2014):

Experiments:
[1] = test system: factor VII deficient plasma; assay: Thrombelastography, factor VII deficient plasma; type: biochemical, human; settings: 100 mmol CORM-2 vs control; FVII deficient plasma, 4 individuals
Description: (§1) Plasma deficient (<1% normal activity) in factor VIII (FVIII; 11 individuals), factor IX (FIX; 5 individuals), or factor VII (FVII; 4 individuals) was obtained from anonymous donors (George King Bio-Medical, Overland Park, Kans.) and was anticoagulated with sodium citrate. The final volume for all subsequently described plasma sample mixtures was […]. Sample composition consisted of […] of plasma, […] of tissue factor (0.1% final concentration in 0.9% NaCl; Diagnostica Stago, Asnieres, France), 3.6 mL of dimethyl sulfoxide (DMSO) or DMSO with CORM-2 ([…]; Sigma-Aldrich, St. Louis, Mo.), and 20 mL of […] CaCl2. […] (Motterlini et al. 2005). While CORM-2 decays slowly in DMSO, DMSO was added to the dry compound just prior to placement into the plasma mixture.
(§2) Plasma sample mixtures were placed in a disposable cup in a computer-controlled THROMBELASTOGRAPH® hemostasis system (Model 5000; Haemoscope Corp., Niles, Ill.), with addition of CaCl2 as the last step to initiate clotting. Data were collected until clot strength stabilized (maximum amplitude).
(§3) Statistical analyses. […] A paired student's t-test was used to analyze the effects of CORM-2 exposure in FVIII deficient individuals. The results of the FIX and FVII deficient groups were presented but not statistically analyzed secondary to the small number of individuals in each cohort. […] Statistical analyses and graphical representation of the data were generated with commercially available software (SigmaPlot 11.0; Systat Software Inc., San Jose, Calif.; CorelDRAW 12.0; Corel Corp., Ottawa, Ontario, Canada). A P value of less than 0.05 was considered significant.

[2] = test system: factor VIII deficient plasma; assay: Thrombelastography, factor VIII deficient plasma; type: biochemical, human; settings: FVIII deficient plasma, 11 individuals, mean ± SD
Description: as §1, §2, §3

## [C-]#[O+].[C-]#[O+].[C-]#[O+].[C-]#[O+].[C-]#[O+].[C-]#[O+].[Cl][Ru][Cl].[Cl][Ru][Cl] [CORM-2, tricarbonyldichlororuthenium (II) dimer]
[1]
  effect on MRTG: an increase in MRTG and TTG in all FVII deficient plasma donors
  effect on TMRTG: an increase in TMRTG in all individuals tested
  effect on TTG: an increase in MRTG and TTG in all FVII deficient plasma donors
[2]; 100 mmol CORM-2
  TMRTG (time to maximum rate of thrombus generation): 4.0 ± 2.3 min
  TTG (total thrombus generation): 232±56 dynes/cm^2
[2]; CORM-2
  MRTG (maximum rate of thrombus generation): 5.0±2.7 dynes/cm^2/sec
